This note sets out measurements from patent publication US5359138A (Zaidan Hojin Biseibutsu Kagaku Kenkyu KaI, priority 1989, dated 1994).

“Also recorded” adds a separate entry of the source. Starred links: 1 amine or outer side, 2 acyl side, 3 side chain; linkers in the order of their positions; H or OH if unused. Non-standard residues stand in square brackets, D forms with d. Residues, ends and D or L forms follow the SMILES beside them. ξ: configuration not given here. *: point of attachment. ξ(3-Amino-2-oxopentanoyl) = CCC(N[*:1])C(=O)C(=O)[*:2]; Abu(ψCOCO) = CC[C@H](N[*:1])C(=O)C(=O)[*:2]; Butanoyl(4-Ph) = O=C(CCCc1ccccc1)*; Cbz = O=C(OCc1ccccc1)*; OBn = c1ccc(CO*)cc1

In one data set the target is cathepsin B (Homo sapiens, UniProt P07858). The experiment in a line: Cathepsin B inhibition activity (method by Knight). It counts as biochemical. The procedure:
The elastase inhibition activity was determined according to a method by Mumford, R. A. et al (J. Biol. Chem., 225, 2227 (1980)). The cathepsin B inhibition activity was determined according to a method by Knight, C. G. (Biochem. J., 189, 447-453 (1980)).

Another data set has as its target T1, prolylendopeptidase (Sus scrofa, UniProt P23687).
T1 construct: a pig kidney sample was subjected to a fractionation operation with ammonium sulfate; from tissue; host or cells: pig kidney
Put plainly: Determination of anti-prolylendopeptidase activity. It counts as biochemical, pig. As to conditions: for PPCE = Propylendopeptidase inhibition activity, IC50: pig kidney enzyme, substrate Z-Gly-Pro-beta-naphthylamide, 37° C., 30 minutes, pH 7.8. The method, then:
The determination of anti-prolylendopeptidase activity was conducted by a modified method based on the method by Yoshimoto et al (Biochim. Biophys. Acta, vol. 569, pages 184-192 (1979)).
A test tube was charged with a solution mixture consisting of (a) 0.2 ml of a solution of 0.5 mM N-benzyloxycarbonyl-L-glycyl-L-prolyl-beta-naphthylamide in 40% dioxane; (b) 0.5 ml of a 0.05M Tris-HCl buffer solution (pH 7.8); and (c) 0.25 ml of an aqueous solution containing the test material. The solution mixture was heated to 37° C. for 3 minutes, and admixed with 0.05 ml of a prolylendopeptidase solution to effect a reaction at 37° C. for 30 minutes. The prolylendopeptidase employed was that which had been obtained according to a modified method based on the enzyme purification method by Koida, Walter et al. (J. Biol. Chem. Vol. 251, pages 7593-7599 (1976), wherein a pig kidney sample was subjected to a fractionation operation with ammonium sulfate, and wherein a purification was effected by a column chromatography employing a DEAE-Sephadex A-50 column.
After the completion of the reaction, the reaction mixture was admixed with 1 ml of a 1M sodium acetate buffer solution containing 10% of Tween-20 and 0.1% of Fast Garnet GBC salt. The reaction mixture was allowed to stand at room temperature for 15 minutes, and then measured for the light absorption at 525 nm (a). At the same time, a control sample, which was free of the test compounds and contained only the buffer solution, was measured for the light absorption (b).
The prolylendopeptidase inhibition activity was determined by employing the formula: […]

In a further data set the test system is mice. The experiment in a line: Toxicity, LD50 (i.v.) in mice. It counts as in vivo. The method, then:
The compounds according to the invention have a low toxicity. In the case of mice, LD50 (i.v.) of poststatin is at least 200 mg/kg. Therefore, it can be expected that the compounds according to the invention will be useful, for instance, as a drug for treating amnesia and autoimmune diseases including systemic erythematosus and the like.

The next data set can be described thus: Solubility of poststatin. The class given is physicochemical. As to conditions: solvents as named; listed as poststatin.

T1 sequence (P23687 whole entry): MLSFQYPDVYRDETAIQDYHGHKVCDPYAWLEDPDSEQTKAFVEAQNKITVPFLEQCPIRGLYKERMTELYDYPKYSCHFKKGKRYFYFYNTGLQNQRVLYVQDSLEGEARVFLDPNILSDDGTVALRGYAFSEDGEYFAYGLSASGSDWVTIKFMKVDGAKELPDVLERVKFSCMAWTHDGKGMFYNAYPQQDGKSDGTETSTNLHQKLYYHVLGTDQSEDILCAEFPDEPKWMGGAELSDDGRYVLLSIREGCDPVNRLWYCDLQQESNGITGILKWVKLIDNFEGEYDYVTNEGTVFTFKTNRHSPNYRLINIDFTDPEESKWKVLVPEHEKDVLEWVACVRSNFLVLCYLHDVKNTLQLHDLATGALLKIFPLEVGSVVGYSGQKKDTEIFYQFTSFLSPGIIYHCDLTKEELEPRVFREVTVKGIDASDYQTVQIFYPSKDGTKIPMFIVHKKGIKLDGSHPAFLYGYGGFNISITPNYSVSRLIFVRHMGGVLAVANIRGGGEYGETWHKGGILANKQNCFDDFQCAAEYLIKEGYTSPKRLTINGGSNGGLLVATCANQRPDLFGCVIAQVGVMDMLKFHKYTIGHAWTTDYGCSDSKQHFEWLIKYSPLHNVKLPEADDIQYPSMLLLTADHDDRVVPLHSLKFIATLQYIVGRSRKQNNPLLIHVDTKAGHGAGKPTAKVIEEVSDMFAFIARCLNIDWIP

For `CCC(NC(=O)[C@H](Cc1ccccc1)NC(=O)OCc1ccccc1)C(=O)C(=O)N[C@H](CC(C)C)C(=O)N[C@H](C(=O)OC(C)(C)C)C(C)C` (mixture of isomers) [Compound 3, Z-L-phenylalanyl-(RS)-3-amino-2-oxopentanoyl-D-leucyl-L-valine t-butyl ester], the “CatB = Cathepsin B inhibition activity, IC50” value at cathepsin B is greater than 100 µg/mL. Also, at prolylendopeptidase, the “PPCE = Propylendopeptidase inhibition activity, IC50” value was found to be 0.11 µg/mL.

In the case of `CCC(NC(=O)[C@H](Cc1ccccc1)NC(=O)OCc1ccccc1)C(=O)C(=O)N[C@H](CC(C)C)C(=O)N[C@H](C(=O)O)C(C)C` (mixture of isomers) [Compound 4, Z-L-phenylalanyl-(RS)-3-amino-2-oxopentanoyl-D-leucyl-L-valine], the “CatB = Cathepsin B inhibition activity, IC50” value on cathepsin B stood at 0.64 µg/mL. Besides, the “PPCE = Propylendopeptidase inhibition activity, IC50” value on prolylendopeptidase is 0.007 µg/mL.

Regarding `CCC(NC(=O)[C@@H](NC(=O)OC(C)(C)C)C(C)C)C(=O)C(=O)N[C@H](CC(C)C)C(=O)OC(C)(C)C` (mixture of isomers) [Compound 5, BOC-L-valyl-(RS)-3-amino-2-oxopentanoyl-D-leucyl t-butyl ester], at cathepsin B, the “CatB = Cathepsin B inhibition activity, IC50” value was 2.2 µg/mL. For the same compound, the “PPCE = Propylendopeptidase inhibition activity, IC50” value on prolylendopeptidase was found to be 0.04 µg/mL.

`CC[C@H](NC(=O)[C@@H](NC(=O)[C@@H](N)C(C)C)C(C)C)C(=O)C(=O)N[C@H](CC(C)C)C(=O)N[C@H](C(=O)O)C(C)C` [Compound 1, L-valyl-L-valyl-(3S)-3-amino-2-oxo-pentanoyl-D-leucyl-L-valyl] (H-VV[Abu(ψCOCO)][dL]V-OH): the “LD50 (i.v.)” value in the data set with mice is recorded as “at least 200 mg/kg”. The “CatB = Cathepsin B inhibition activity, IC50” value at cathepsin B was 2.1 µg/mL. In addition, in “Solubility of poststatin”, the Solubility entry was “soluble in water, methanol, and dimethyl sulfoxide; also recorded: insoluble in acetone, ethyl acetate, chloroform and hexane”. The “PPCE = Propylendopeptidase inhibition activity, IC50” value on prolylendopeptidase turned out to be 0.03 µg/mL.

As to `CC[C@H](NC(=O)[C@@H](NC(=O)[C@@H](NC(=O)OCc1ccccc1)C(C)C)C(C)C)C(=O)C(=O)N[C@H](CC(C)C)C(=O)N[C@H](C(=O)OCc1ccccc1)C(C)C` [Compound 2, Z-L-valyl-L-valyl-(3S)-3-amino-2-oxo-pentanoyl-D-leucyl-L-valine benzyl ester] (Cbz-VV[Abu(ψCOCO)][dL]V-OBn), at cathepsin B, the “CatB = Cathepsin B inhibition activity, IC50” value stood at 100 µg/mL. In addition, the “PPCE = Propylendopeptidase inhibition activity, IC50” value at prolylendopeptidase came out at 1 µg/mL.

Regarding `CCC(NC(=O)[C@@H]1CCCN1C(=O)[C@@H](N)C(C)C)C(=O)C(=O)N[C@H](CC(C)C)C(=O)N[C@H](C(=O)O)C(C)C` (stereo partly shown) [Compound 6], the IC50 at cathepsin B (read-out: CatB = Cathepsin B inhibition activity, IC50) was greater than 185000 nM; on prolylendopeptidase, 556 nM.

For the compound `CCC(NC(=O)[C@@H]1CCCN1C(=O)[C@@H](NC(=O)CCCc1ccccc1)C(C)C)C(=O)C(=O)N[C@H](CC(C)C)C(=O)N[C@H](C(=O)O)C(C)C` (stereo partly drawn) [Compound 7, phenylbutanoyl-L-valyl-L-propyl-3-amino-2-oxopentanoyl-D-leucyl-L-valine] ({Butanoyl(4-Ph)}-VP[ξ(3-Amino-2-oxopentanoyl)][dL]V-OH), the “CatB = Cathepsin B inhibition activity, IC50” value on cathepsin B stood at 72 µg/mL. In addition, the “PPCE = Propylendopeptidase inhibition activity, IC50” value at prolylendopeptidase came to 0.17 µg/mL.

One may read the IC50 as the point on the concentration scale where inhibition reaches its midpoint.
